Experimental data: patent publication US10206399B2, “Herbicidal composition comprising uracil compound as active ingredient” (Dongbu Farm Hannong Co., Ltd., priority 2012, dated 2019)
Like-named read-outs stand apart in the source and are kept apart here.

Columns and labels:
Monochoria vaginalis = assay: Paddy field farming herbicidal composition test, plant mortality; format: in vivo
Description: (§1) X is % damage by uracil compound (a) of formula 1 at the rate of application of p kg/ha; Y is % damage by conventional herbicidal compound (b) at the rate of application of q kg/ha; and E is the expected damage caused by compounds (a) and (b) at a rate of application of p and q kg/ha.
(§2) The expected activity for a given combination of two herbicides can be calculated using equation 1 above.

Ludwigia prostrate = assay: as above; format: in vivo
Description: as §1, §2

rice plant = assay: Paddy field farming herbicidal composition test, plant mortality (crop)
Description: as §1, §2

wheat = assay: Dry field farming herbicidal composition test, plant mortality (crop)
Description: as §1, §2

Echinochloa crus = assay: Dry field farming herbicidal composition test, plant mortality; format: in vivo
Description: as §1, §2

Capsella bursapastoris = assay: Dry field farming herbicidal composition test, plant mortality; format: in vivo; details: in % (unit assumed)
Description: as §1, §2

Abutilon theophrasti = assay: as above; format: in vivo
Description: as §1, §2

Porippa islandica = assay: as above; format: in vivo
Description: as §1, §2

Aeschynomene indica = assay: as above; format: in vivo
Description: as §1, §2

Lamium amplexicaule = assay: as above; format: in vivo; details: in % (unit assumed)
Description: as §1, §2

Alopecurus aequalis = assay: as above; format: in vivo; details: in % (unit assumed)
Description: as §1, §2

Digitaria sanguinalis = assay: as above; format: in vivo
Description: as §1, §2

[1] = Echinochloa, read-out: Echinochloa crus mortality, measured value
[2] = Pontederia vaginalis, read-out: Monochoria vaginalis mortality (measured value)
[3] = Abutilon theophrasti, read-out: Abutilon theophrasti mortality, measured value
[4] = Aeschynomene indica, read-out: Aeschynomene indica mortality, measured value
[5] = Digitaria sanguinalis, read-out: Digitaria sanguinalis mortality, measured value

COc1cc(OC)nc(NC(=O)NS(=O)(=O)Cc2ccccc2C(=O)O)n1 [Bensulfuron]
Monochoria vaginalis mortality (measured value) (Monochoria vaginalis; 10 g/ha): 15 | Monochoria vaginalis mortality (measured value) (Monochoria vaginalis; 20 g/ha): 35 | Monochoria vaginalis mortality (measured value) (Monochoria vaginalis; 40 g/ha): 51 | Ludwigia prostrate mortality (measured value) (Ludwigia prostrate; 10 g/ha): 20% | Ludwigia prostrate mortality (measured value) (Ludwigia prostrate; 20 g/ha): 40% | Ludwigia prostrate mortality (measured value) (Ludwigia prostrate; 40 g/ha): 55% | Rice plant mortality (measured value) (rice plant; 10 g/ha): 0 | Rice plant mortality (measured value) (rice plant; 20 g/ha): 0 | Rice plant mortality (measured value) (rice plant; 40 g/ha): 1

Cc1nn(-c2cc(CC(Cl)C(=O)O)c(Cl)cc2F)c(=O)n1C(F)F (stereo not shown) [Carfentrazone]
Wheat mortality, measured value (wheat; 1 g/ha): 0 | Wheat mortality, measured value (wheat; 2 g/ha): 0 | Wheat mortality, measured value (wheat; 4 g/ha): 0 | Echinochloa crus mortality, measured value (Echinochloa crus; 1 g/ha): 0 | Echinochloa crus mortality, measured value (Echinochloa crus; 2 g/ha): 0 | Echinochloa crus mortality, measured value (Echinochloa crus; 4 g/ha): 0 | pest or weed control at 5 g/ha (Echinochloa crus; [1]): 0% | pest or weed control at 10 g/ha (Echinochloa crus; [1]): 5% | Corn mortality (measured value) (corn; 1 g/ha): 0 | Corn mortality (measured value) (corn; 2 g/ha): 0 | Corn mortality (measured value) (corn; 4 g/ha): 0 | Corn mortality, measured value (corn; 5 g/ha): 0 | Corn mortality, measured value (corn; 10 g/ha): 1 | pest or weed control at 5 g/ha (Monochoria vaginalis; [2]): 20% | pest or weed control at 10 g/ha (Monochoria vaginalis; [2]): 45% | Capsella bursapastoris mortality, measured value (Capsella bursapastoris; 1 g/ha): 0 | Capsella bursapastoris mortality, measured value (Capsella bursapastoris; 2 g/ha): 15 | Capsella bursapastoris mortality, measured value (Capsella bursapastoris; 4 g/ha): 35 | Abutilon theophrasti mortality, measured value (Abutilon theophrasti; 1 g/ha): 10 | Abutilon theophrasti mortality, measured value (Abutilon theophrasti; 2 g/ha): 25 | Abutilon theophrasti mortality, measured value (Abutilon theophrasti; 4 g/ha): 45 | pest or weed control at 5 g/ha (Abutilon theophrasti; [3]): 50% | pest or weed control at 10 g/ha (Abutilon theophrasti; [3]): 75% | Porippa islandica mortality, measured value (Porippa islandica; 1 g/ha): 5 | Porippa islandica mortality, measured value (Porippa islandica; 2 g/ha): 15 | Porippa islandica mortality, measured value (Porippa islandica; 4 g/ha): 40 | Aeschynomene indica mortality, measured value (Aeschynomene indica; 1 g/ha): 5 | Aeschynomene indica mortality, measured value (Aeschynomene indica; 2 g/ha): 20 | Aeschynomene indica mortality, measured value (Aeschynomene indica; 4 g/ha): 40 | pest or weed control at 5 g/ha (Aeschynomene indica; [4]): 45% | pest or weed control at 10 g/ha (Aeschynomene indica; [4]): 70% | Lamium amplexicaule mortality, measured value (Lamium amplexicaule; 1 g/ha): 5 | Lamium amplexicaule mortality, measured value (Lamium amplexicaule; 2 g/ha): 20 | Lamium amplexicaule mortality, measured value (Lamium amplexicaule; 4 g/ha): 40 | Ludwigia prostrate mortality (measured value) (Ludwigia prostrate; 5 g/ha): 35% | Ludwigia prostrate mortality (measured value) (Ludwigia prostrate; 10 g/ha): 50% | Rice plant mortality (measured value) (rice plant; 5 g/ha): 0 | Rice plant mortality (measured value) (rice plant; 10 g/ha): 0 | Alopecurus aequalis mortality, measured value (Alopecurus aequalis; 1 g/ha): 0 | Alopecurus aequalis mortality, measured value (Alopecurus aequalis; 2 g/ha): 0 | Alopecurus aequalis mortality, measured value (Alopecurus aequalis; 4 g/ha): 0 | Digitaria sanguinalis mortality, measured value (Digitaria sanguinalis; 1 g/ha): 0 | Digitaria sanguinalis mortality, measured value (Digitaria sanguinalis; 2 g/ha): 0 | Digitaria sanguinalis mortality, measured value (Digitaria sanguinalis; 4 g/ha): 0 | pest or weed control at 5 g/ha (Digitaria sanguinalis; [5]): 0% | pest or weed control at 10 g/ha (Digitaria sanguinalis; [5]): 5%

COc1cc(OC)nc(NC(=O)NS(=O)(=O)c2c(C(=O)O)cnn2C)n1 [Pyrazosulfuron]
Monochoria vaginalis mortality (measured value) (Monochoria vaginalis; 2 g/ha): 20 | Monochoria vaginalis mortality (measured value) (Monochoria vaginalis; 4 g/ha): 40 | Monochoria vaginalis mortality (measured value) (Monochoria vaginalis; 5 g/ha): 40 | Monochoria vaginalis mortality (measured value) (Monochoria vaginalis; 8 g/ha): 63 | Monochoria vaginalis mortality (measured value) (Monochoria vaginalis; 10 g/ha): 67 | Ludwigia prostrate mortality (measured value) (Ludwigia prostrate; 2 g/ha): 15% | Ludwigia prostrate mortality (measured value) (Ludwigia prostrate; 4 g/ha): 35% | Ludwigia prostrate mortality (measured value) (Ludwigia prostrate; 5 g/ha): 45% | Ludwigia prostrate mortality (measured value) (Ludwigia prostrate; 8 g/ha): 65% | Ludwigia prostrate mortality (measured value) (Ludwigia prostrate; 10 g/ha): 62% | Rice plant mortality (measured value) (rice plant; 2 g/ha): 0 | Rice plant mortality (measured value) (rice plant; 4 g/ha): 0 | Rice plant mortality (measured value) (rice plant; 5 g/ha): 0 | Rice plant mortality (measured value) (rice plant; 8 g/ha): 1 | Rice plant mortality (measured value) (rice plant; 10 g/ha): 1
